Patent US6737383B1, “Herbicidal oxadiazolidines” (priority 1999, dated 2004)

Columns and labels:
[1] = test system: smallflower flatsedge; assay: Test B flood test smallflower flatsedge; assay type: in vivo, Cyperus difformis
Outline: (§1)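 Read-out is a visual response score from 0 (no effect) to 10 (complete control), assigned by comparison with untreated controls. Treatment was applied at the 2-leaf stage, and plants stayed in the greenhouse for twelve to sixteen days before scoring.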

[2] = test system: soybean; assay: Test B pre/postemergence soybean; assay type: in vivo, Glycine max
Outline: (§2)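 Test chemicals in a non-phytotoxic solvent mixture with surfactant were sprayed preemergence onto planted seeds and postemergence onto plants 2 to 18 cm tall (1- to 4-leaf stage). After twelve to sixteen days in a greenhouse, injury was visually rated against untreated controls from 0 (no effect) to 10 (complete control).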

[3] = test system: duck salad; assay: Test B flood test duck salad; assay type: in vivo, Heteranthera limosa
Outline: as §1

[4] = test system: velvetleaf; assay: Test B pre/postemergence velvetleaf; assay type: in vivo, Abutilon theophrasti
Outline: as §2

[5] = test system: purple nutsedge; assay: Test B pre/postemergence purple nutsedge; assay type: in vivo, Cyperus rotundus
Outline: as §2

[6] = test system: cocklebur; assay: Test B pre/postemergence cocklebur; assay type: in vivo, Xanthium strumarium
Outline: as §2

[7] = test system: wild oat; assay: Test B pre/postemergence wild oat; assay type: in vivo, Avena fatua
Outline: as §2

[8] = test system: corn; assay: Test B pre/postemergence corn; assay type: in vivo, Zea mays
Outline: as §2

[9] = test system: bamyardgrass; assay: Test B flood test barnyardgrass; assay type: in vivo, Echinochloa crus-galli
Outline: as §1

[10] = test system: morningglory; assay: Test B pre/postemergence morningglory; assay type: in vivo, Ipomoea hederacea
Outline: as §2

[11] = test system: crabgrass; assay: Test B pre/postemergence crabgrass; assay type: in vivo, Digitaria sanguinalis
Outline: as §2

[12] = test system: wheat; assay: Test B pre/postemergence wheat; assay type: in vivo, Triticum aestivum
Outline: as §2

[13] = test system: rape; assay: Test B pre/postemergence rape; assay type: in vivo, Brassica napus
Outline: as §2

[14] = test system: bedstraw; assay: Test B pre/postemergence bedstraw; assay type: in vivo, Galium aparine
Outline: as §2

[15] = test system: rice; assay: Test B flood test rice; assay type: in vivo, Oryza sativa
Outline: as §1

[16] = test system: sugar beet; assay: Test B pre/postemergence sugar beet; assay type: in vivo, Beta vulgaris
Outline: as §2

[17] = test system: giant foxtail; assay: Test B pre/postemergence giant foxtail; assay type: in vivo, Setaria faberii
Outline: as §2

[18] = test system: blackgrass; assay: Test B pre/postemergence blackgrass; assay type: in vivo, Alopecurus myosuroides
Outline: as §2

[19] = test system: surinam grass; assay: Test B pre/postemergence surinam grass; assay type: in vivo, Brachiaria decumbens
Outline: as §2

[20] = test system: pigweed; assay: Test B pre/postemergence pigweed; assay type: in vivo, Amaranthus retroflexus
Outline: as §2

[21] = Rate 62 g/ha, flood test species, Pre-emergence, visual evaluation after twelve to sixteen days
[22] = Rate 125 g/ha, under heading Pre-emergence, flood test species, visual evaluation after twelve to sixteen days
[23] = Rate 250 g/ha, Pre-emergence (flood test species), scale 0 to 10, 0 is no effect, 10 is complete control
[24] = Rate 500 g/ha, Pre-emergence section of Table B, 0 to 10 scale (0 no effect, 10 complete control)
[25] = Postemergence, Rate 62 g/ha, scale 0 to 10, 0 is no effect, 10 is complete control
[26] = Postemergence, Rate 125 g/ha, scale of 0 to 10 where 0 is no effect and 10 is complete control
[27] = Postemergence, Rate 250 g/ha, scale of 0 to 10, 0 is no effect, 10 is complete control
[28] = Postemergence, Rate 500 g/ha, scale of 0 to 10 where 0 is no effect and 10 is complete control
[29] = Preemergence, Rate 62 g/ha, scale 0 to 10 (0 no effect, 10 complete control)
[30] = Preemergence, Rate 125 g/ha, scale of 0 to 10 where 0 is no effect and 10 is complete control
[31] = Preemergence, Rate 500 g/ha, scale of 0 to 10 where 0 is no effect and 10 is complete control

Compound: CC(C)N(C(=O)n1oc(=O)n(CC2=NOCCC2)c1=O)c1ccc(F)cc1 [Compound 601]
- Plant response rating, S. Flatsedge (0 to 10 scale, 0 is no effect, 10 is complete control) [1, 21]: 0
- S. Flatsedge plant response rating (0 to 10 scale, 0 is no effect, 10 is complete control) [1, 22]: 0
- S. Flatsedge plant response rating [1, 23]: 0
- S. Flatsedge plant response rating [1, 24]: 0
- Plant response rating, Soybean [2, 25]: 4
- Plant response rating, Soybean [2, 26]: 4
- Soybean plant response rating [2, 27]: 5
- Plant response rating, Soybean [2, 28]: 6
- Soybean plant response rating [2, 29]: 0
- Soybean plant response rating [2, 30]: 0
- Plant response rating, Soybean [2, 31]: 1
- Plant response rating, Ducksalad (0 to 10 scale, 0 is no effect, 10 is complete control) [3, 21]: 0
- Ducksalad plant response rating (0 to 10 scale, 0 is no effect, 10 is complete control) [3, 22]: 0
- Ducksalad plant response rating [3, 23]: 0
- Ducksalad plant response rating [3, 24]: 0
- Plant response rating, Velvetleaf [4, 25]: 0
- Plant response rating, Velvetleaf [4, 26]: 0
- Velvetleaf plant response rating [4, 27]: 0
- Plant response rating, Velvetleaf [4, 28]: 4
- Velvetleaf plant response rating [4, 29]: 1
- Velvetleaf plant response rating [4, 30]: 4
- Plant response rating, Velvetleaf [4, 31]: 7
- Plant response rating, Nutsedge [5, 25]: 0
- Plant response rating, Nutsedge [5, 26]: 0
- Nutsedge plant response rating [5, 27]: 0
- Plant response rating, Nutsedge [5, 28]: 0
- Nutsedge plant response rating [5, 29]: 0
- Nutsedge plant response rating [5, 30]: 0
- Plant response rating, Cocklebur [6, 25]: 0
- Plant response rating, Cocklebur [6, 26]: 0
- Cocklebur plant response rating [6, 27]: 0
- Plant response rating, Cocklebur [6, 28]: 1
- Cocklebur plant response rating [6, 29]: 0
- Cocklebur plant response rating [6, 30]: 0
- Cocklebur plant response rating (0 to 10 scale) ([6]; Preemergence, Rate 250 g/ha): 0
- Plant response rating, Cocklebur [6, 31]: 0
- Plant response rating, Wild oats [7, 25]: 0
- Plant response rating, Wild oats [7, 26]: 0
- Wild oats plant response rating [7, 27]: 0
- Plant response rating, Wild oats [7, 28]: 0
- Wild oats plant response rating [7, 29]: 3
- Wild oats plant response rating [7, 30]: 8
- Plant response rating, Wild oats [7, 31]: 8
- Plant response rating, Corn [8, 25]: 0
- Plant response rating, Corn [8, 26]: 0
- Corn plant response rating [8, 27]: 0
- Plant response rating, Corn [8, 28]: 0
- Corn plant response rating [8, 29]: 0
- Corn plant response rating [8, 30]: 0
- Corn plant response rating (0 to 10 scale) ([8]; Preemergence, Rate 250 g/ha): 0
- Plant response rating, Corn [8, 31]: 3
- Plant response rating, Barnyardgrass (0 to 10 scale, 0 is no effect, 10 is complete control) [9, 21]: 0
- Barnyardgrass plant response rating (0 to 10 scale, 0 is no effect, 10 is complete control) [9, 22]: 0
- Barnyardgrass plant response rating [9, 23]: 0
- Barnyardgrass plant response rating [9, 24]: 0
- Plant response rating, Morningglory [10, 25]: 1
- Plant response rating, Morningglory [10, 26]: 1
- Morningglory plant response rating [10, 27]: 1
- Plant response rating, Morningglory [10, 28]: 1
- Morningglory plant response rating [10, 29]: 0
- Morningglory plant response rating [10, 30]: 0
- Plant response rating, Morningglory [10, 31]: 0
- Plant response rating, Crabgrass [11, 25]: 3
- Plant response rating, Crabgrass [11, 26]: 4
- Crabgrass plant response rating [11, 27]: 5
- Plant response rating, Crabgrass [11, 28]: 9
- Crabgrass plant response rating [11, 29]: 6
- Crabgrass plant response rating [11, 30]: 9
- Plant response rating, Crabgrass [11, 31]: 10
- Plant response rating, Wheat [12, 25]: 0
- Plant response rating, Wheat [12, 26]: 0
- Wheat plant response rating [12, 27]: 0
- Plant response rating, Wheat [12, 28]: 3
- Wheat plant response rating [12, 29]: 0
- Wheat plant response rating [12, 30]: 1
- Plant response rating, Wheat [12, 31]: 6
- Plant response rating, Rape [13, 25]: 0
- Plant response rating, Rape [13, 26]: 0
- Rape plant response rating [13, 27]: 0
- Plant response rating, Rape [13, 28]: 0
- Rape plant response rating [13, 29]: 0
- Rape plant response rating [13, 30]: 0
- Plant response rating, Rape [13, 31]: 5
- Bedstraw plant response rating [14, 27]: 3
- Plant response rating, Bedstraw [14, 28]: 8
- Bedstraw plant response rating [14, 29]: 0
- Bedstraw plant response rating [14, 30]: 0
- Bedstraw plant response rating (0 to 10 scale) ([14]; Preemergence, Rate 250 g/ha): 0
- Plant response rating, Rice (0 to 10 scale, 0 is no effect, 10 is complete control) [15, 21]: 0
- Rice plant response rating (0 to 10 scale, 0 is no effect, 10 is complete control) [15, 22]: 0
- Rice plant response rating [15, 23]: 0
- Rice plant response rating [15, 24]: 0
- Plant response rating, Sugarbeets [16, 25]: 0
- Plant response rating, Sugarbeets [16, 26]: 0
- Sugarbeets plant response rating [16, 27]: 0
- Plant response rating, Sugarbeets [16, 28]: 0
- Sugarbeets plant response rating [16, 29]: 0
- Sugarbeets plant response rating [16, 30]: 4
- Plant response rating, Sugarbeets [16, 31]: 5
- Plant response rating, Giant foxtail [17, 25]: 7
- Plant response rating, Giant foxtail [17, 26]: 7
- Giant foxtail plant response rating [17, 27]: 7
- Plant response rating, Giant foxtail [17, 28]: 9
- Giant foxtail plant response rating [17, 29]: 10
- Giant foxtail plant response rating [17, 30]: 10
- Plant response rating, Giant foxtail [17, 31]: 10
- Blackgrass plant response rating [18, 27]: 7
- Plant response rating, Blackgrass [18, 28]: 8
- Blackgrass plant response rating [18, 30]: 8
- Blackgrass plant response rating (0 to 10 scale) ([18]; Preemergence, Rate 250 g/ha): 8
- Blackgrass plant response rating [18, 31]: 9
- Plant response rating, B. signalgrass [19, 25]: 0
- Plant response rating, B. signalgrass [19, 26]: 0
- B. signalgrass plant response rating [19, 27]: 4
- Plant response rating, B. signalgrass [19, 28]: 7
- B. signalgrass plant response rating [19, 29]: 3
- B. signalgrass plant response rating [19, 30]: 7
- B. signalgrass plant response rating (0 to 10 scale, 0 is no effect, 10 is complete control) ([19]; Preemergence, Rate 250 g/ha): 8
- B. signalgrass plant response rating [19, 31]: 8
- Plant response rating, Redroot pigweed [20, 25]: 0
- Plant response rating, Redroot pigweed [20, 26]: 2
- Redroot pigweed plant response rating [20, 27]: 2
- Plant response rating, Redroot pigweed [20, 28]: 4
- Redroot pigweed plant response rating [20, 29]: 4
- Redroot pigweed plant response rating [20, 30]: 10
- Plant response rating, Redroot pigweed [20, 31]: 10
